Our source for the activity and Kd values is article PMC6478789, “A chemical toolbox for the study of bromodomains and epigenetic signaling” (Nature Communications, 2019).

The Kd is the constant that tells how readily two partners part at equilibrium.

One assay deals with T1, MYST1 (Homo sapiens, UniProt Q9H7Z6).
T1 sequence (Q9H7Z6 1-458): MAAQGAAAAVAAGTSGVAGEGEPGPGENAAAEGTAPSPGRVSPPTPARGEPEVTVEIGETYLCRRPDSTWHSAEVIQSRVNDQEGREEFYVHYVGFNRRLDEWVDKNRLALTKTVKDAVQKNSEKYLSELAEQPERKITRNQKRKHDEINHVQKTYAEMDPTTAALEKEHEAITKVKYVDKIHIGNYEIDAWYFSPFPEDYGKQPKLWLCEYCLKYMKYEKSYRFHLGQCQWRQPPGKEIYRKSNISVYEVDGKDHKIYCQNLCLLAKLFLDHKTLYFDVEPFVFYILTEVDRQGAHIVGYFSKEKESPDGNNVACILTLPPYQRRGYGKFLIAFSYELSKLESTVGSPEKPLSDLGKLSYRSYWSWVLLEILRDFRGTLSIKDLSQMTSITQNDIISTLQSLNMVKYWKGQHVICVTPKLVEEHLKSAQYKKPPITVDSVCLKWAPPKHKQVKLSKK
The assay can be described thus: Histone acetyltransferase (HAT) activity assay. It is filed as biochemical. Particulars: read-out: HATs Activity (%).

A further assay addresses MYST3 (Homo sapiens, UniProt Q92794). Put plainly: Histone acetyltransferase (HAT) activity assay. Format: biochemical. The note with it: read-out: HATs Activity (%).
In a further assay the target is T2, HAT1 (Homo sapiens, UniProt O14929).
T2 sequence (O14929 1-419): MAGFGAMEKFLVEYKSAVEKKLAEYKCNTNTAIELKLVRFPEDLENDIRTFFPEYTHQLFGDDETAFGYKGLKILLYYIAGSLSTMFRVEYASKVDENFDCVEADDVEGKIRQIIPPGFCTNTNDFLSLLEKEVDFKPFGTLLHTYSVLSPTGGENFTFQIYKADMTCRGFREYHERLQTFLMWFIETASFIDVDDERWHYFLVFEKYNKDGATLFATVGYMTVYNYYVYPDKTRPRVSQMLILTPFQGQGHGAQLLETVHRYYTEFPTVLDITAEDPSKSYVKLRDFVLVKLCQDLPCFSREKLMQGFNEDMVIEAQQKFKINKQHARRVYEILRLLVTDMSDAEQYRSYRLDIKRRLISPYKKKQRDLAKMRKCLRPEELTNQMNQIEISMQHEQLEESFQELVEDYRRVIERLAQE
The assay can be described thus: Histone acetyltransferase (HAT) activity assay. Format: biochemical. Particulars: read-out: HATs Activity (%).

Another assay addresses GCN5L2 (Homo sapiens, UniProt Q92830). The assay can be described thus: Histone acetyltransferase (HAT) activity assay. Format: biochemical. Particulars: read-out: HATs Activity (%).
Assay [1] concerns the target EP300 (Homo sapiens, UniProt Q09472). Put plainly: Histone acetyltransferase (HAT) activity assay. Particulars: read-out: HATs Activity (%). Format: biochemical.
Target sequence in this assay (Q09472 whole entry, species assumed): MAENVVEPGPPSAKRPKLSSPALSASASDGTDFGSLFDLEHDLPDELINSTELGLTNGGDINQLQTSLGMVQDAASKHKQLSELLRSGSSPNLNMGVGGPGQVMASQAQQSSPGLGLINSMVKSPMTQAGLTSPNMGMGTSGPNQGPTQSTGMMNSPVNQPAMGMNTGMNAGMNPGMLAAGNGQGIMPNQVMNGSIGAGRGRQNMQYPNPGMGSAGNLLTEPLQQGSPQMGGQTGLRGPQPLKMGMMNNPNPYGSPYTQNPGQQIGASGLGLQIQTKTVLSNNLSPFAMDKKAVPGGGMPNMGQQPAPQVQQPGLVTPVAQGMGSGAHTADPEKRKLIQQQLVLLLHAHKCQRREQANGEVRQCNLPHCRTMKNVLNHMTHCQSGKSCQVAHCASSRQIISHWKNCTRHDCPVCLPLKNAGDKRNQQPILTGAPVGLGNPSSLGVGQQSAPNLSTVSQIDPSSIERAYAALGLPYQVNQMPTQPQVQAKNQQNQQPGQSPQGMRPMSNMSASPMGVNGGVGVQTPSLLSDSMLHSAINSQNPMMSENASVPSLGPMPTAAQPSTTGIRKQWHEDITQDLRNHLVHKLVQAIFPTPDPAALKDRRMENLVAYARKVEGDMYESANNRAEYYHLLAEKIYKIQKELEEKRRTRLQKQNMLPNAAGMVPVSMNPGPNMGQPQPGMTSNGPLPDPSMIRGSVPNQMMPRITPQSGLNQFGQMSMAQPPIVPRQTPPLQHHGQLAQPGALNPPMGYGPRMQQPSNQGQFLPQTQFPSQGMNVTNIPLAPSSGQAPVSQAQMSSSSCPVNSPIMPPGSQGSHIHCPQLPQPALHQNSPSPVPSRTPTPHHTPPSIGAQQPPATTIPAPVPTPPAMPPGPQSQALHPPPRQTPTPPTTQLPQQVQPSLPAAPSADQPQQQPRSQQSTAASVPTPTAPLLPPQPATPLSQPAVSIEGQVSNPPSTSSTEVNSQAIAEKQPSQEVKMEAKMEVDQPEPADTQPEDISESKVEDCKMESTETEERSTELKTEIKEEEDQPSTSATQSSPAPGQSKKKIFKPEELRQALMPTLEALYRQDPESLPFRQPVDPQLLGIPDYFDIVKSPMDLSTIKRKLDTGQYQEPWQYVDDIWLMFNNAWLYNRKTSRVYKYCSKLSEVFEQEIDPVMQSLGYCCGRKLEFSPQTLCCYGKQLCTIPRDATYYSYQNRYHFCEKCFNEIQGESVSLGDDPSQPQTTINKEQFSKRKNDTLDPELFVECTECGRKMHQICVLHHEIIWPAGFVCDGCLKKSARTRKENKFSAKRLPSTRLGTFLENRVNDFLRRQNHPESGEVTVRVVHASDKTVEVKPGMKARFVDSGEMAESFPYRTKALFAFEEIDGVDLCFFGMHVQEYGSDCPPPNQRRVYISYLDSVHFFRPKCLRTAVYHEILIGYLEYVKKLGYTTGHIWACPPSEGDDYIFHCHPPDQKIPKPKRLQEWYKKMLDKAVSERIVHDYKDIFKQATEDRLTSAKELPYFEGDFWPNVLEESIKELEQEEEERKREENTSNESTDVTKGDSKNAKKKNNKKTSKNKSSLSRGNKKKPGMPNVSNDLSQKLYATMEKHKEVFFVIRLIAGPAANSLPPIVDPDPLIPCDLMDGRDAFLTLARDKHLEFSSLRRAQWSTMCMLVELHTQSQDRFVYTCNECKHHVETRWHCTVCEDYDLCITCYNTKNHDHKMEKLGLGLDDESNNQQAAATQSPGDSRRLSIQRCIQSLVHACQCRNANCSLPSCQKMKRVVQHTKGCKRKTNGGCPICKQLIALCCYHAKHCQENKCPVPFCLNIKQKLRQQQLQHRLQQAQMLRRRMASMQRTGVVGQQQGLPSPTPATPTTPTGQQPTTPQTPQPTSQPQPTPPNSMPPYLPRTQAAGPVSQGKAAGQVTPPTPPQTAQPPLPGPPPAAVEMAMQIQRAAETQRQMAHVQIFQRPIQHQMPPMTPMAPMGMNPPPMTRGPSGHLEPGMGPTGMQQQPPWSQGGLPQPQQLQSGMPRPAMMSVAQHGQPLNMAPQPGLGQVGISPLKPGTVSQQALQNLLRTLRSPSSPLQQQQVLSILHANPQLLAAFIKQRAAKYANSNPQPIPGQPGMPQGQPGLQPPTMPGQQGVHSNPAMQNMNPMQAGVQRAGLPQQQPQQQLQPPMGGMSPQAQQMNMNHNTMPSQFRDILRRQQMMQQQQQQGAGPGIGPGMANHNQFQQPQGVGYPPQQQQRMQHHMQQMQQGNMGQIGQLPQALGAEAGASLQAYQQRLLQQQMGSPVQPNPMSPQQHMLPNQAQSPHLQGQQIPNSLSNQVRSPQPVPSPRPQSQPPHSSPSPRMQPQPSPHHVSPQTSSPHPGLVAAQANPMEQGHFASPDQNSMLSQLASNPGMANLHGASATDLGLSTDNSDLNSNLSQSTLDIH
A further assay has as its target BRDT(2) (Homo sapiens, UniProt Q58F21). Put plainly: BROMOscan ligand-binding assay. The note with it: BROMOscan Gene Symbol BRDT(2).
The next assay deals with BRD3(2) (Homo sapiens, UniProt Q15059). The assay can be described thus: BROMOscan ligand-binding assay. Particulars: BROMOscan Gene Symbol BRD3(2).
Sequence of BRD3(2) (Q15059 306-415 limits assumed): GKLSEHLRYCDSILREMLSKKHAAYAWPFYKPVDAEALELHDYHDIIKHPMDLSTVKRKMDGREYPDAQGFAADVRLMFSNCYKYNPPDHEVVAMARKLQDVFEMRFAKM
The target of another assay is T3, TRIM24(PHD,BRD) (Homo sapiens, UniProt O15164).
T3 sequence (O15164 824-1006 limits assumed): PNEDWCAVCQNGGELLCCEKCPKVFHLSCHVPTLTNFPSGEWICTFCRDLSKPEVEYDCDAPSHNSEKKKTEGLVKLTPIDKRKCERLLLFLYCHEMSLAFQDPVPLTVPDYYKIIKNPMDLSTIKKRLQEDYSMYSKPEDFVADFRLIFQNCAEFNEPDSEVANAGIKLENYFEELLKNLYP
The assay can be described thus: BROMOscan ligand-binding assay. The note with it: BROMOscan Gene Symbol TRIM24(PHD,Bromo.).

In the next assay the target is T4, BRD1 (Homo sapiens, UniProt O95696).
T4 sequence (O95696 562-666 limits assumed): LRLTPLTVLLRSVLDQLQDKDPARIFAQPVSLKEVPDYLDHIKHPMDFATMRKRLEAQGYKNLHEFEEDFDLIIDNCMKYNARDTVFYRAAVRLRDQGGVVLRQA
Put plainly: BROMOscan ligand-binding assay. Particulars: BROMOscan Gene Symbol BRD1.

The target of a further assay is PBRM1(2) (Homo sapiens, UniProt Q86U86). The assay can be described thus: BROMOscan ligand-binding assay. The note with it: BROMOscan Gene Symbol PBRM1(2).
The next assay has as its target T5, TAF1(2) (Homo sapiens, UniProt P21675).
T5 sequence (P21675 1519-1628 limits assumed): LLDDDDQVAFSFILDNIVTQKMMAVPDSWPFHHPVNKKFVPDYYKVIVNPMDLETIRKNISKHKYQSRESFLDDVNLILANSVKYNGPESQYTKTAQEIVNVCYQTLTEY
Put plainly: BROMOscan ligand-binding assay. The note with it: BROMOscan Gene Symbol TAF1(2).

In another assay the target is T6, ATAD2B (Homo sapiens, UniProt Q9ULI0).
T6 sequence (Q9ULI0 951-1066 limits assumed): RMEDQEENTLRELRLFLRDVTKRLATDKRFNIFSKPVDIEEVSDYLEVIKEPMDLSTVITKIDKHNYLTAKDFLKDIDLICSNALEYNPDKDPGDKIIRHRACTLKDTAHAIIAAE
The assay can be described thus: BROMOscan ligand-binding assay.

In another assay the target is T7, BRPF1 (Homo sapiens, UniProt P55201).
T7 sequence (P55201 628-732 limits assumed): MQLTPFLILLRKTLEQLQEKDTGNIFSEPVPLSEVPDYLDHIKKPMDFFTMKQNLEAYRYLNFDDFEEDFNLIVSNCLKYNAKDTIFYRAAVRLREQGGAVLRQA
The assay can be described thus: BROMOscan ligand-binding assay. Particulars: BROMOscan Gene Symbol BRPF1.

In a further assay the target is T8, BRD9 (Homo sapiens, UniProt Q9H8M2).
T8 sequence (Q9H8M2 136-240 limits assumed): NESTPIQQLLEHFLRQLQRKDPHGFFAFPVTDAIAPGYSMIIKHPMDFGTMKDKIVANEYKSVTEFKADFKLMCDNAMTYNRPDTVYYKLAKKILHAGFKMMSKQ
The assay can be described thus: BROMOscan ligand-binding assay. The note with it: BROMOscan Gene Symbol BRD9.

Another assay has as its target BRD3(1) (Homo sapiens, UniProt Q15059). The assay can be described thus: BROMOscan ligand-binding assay. Particulars: BROMOscan Gene Symbol BRD3(1).
For a further assay, the target named is WDR9(2) (Homo sapiens, UniProt Q9NSI6). Put plainly: BROMOscan ligand-binding assay. The note with it: BROMOscan Gene Symbol WDR9(2).
Sequence of WDR9(2) (Q9NSI6 1313-1418 limits assumed): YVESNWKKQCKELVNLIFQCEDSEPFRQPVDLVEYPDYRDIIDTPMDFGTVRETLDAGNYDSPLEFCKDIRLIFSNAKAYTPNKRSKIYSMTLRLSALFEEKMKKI
Another assay addresses BRD2(2) (Homo sapiens, UniProt P25440). The assay can be described thus: BROMOscan ligand-binding assay. The note with it: BROMOscan Gene Symbol BRD2(2).
In the next assay the target is T9, BAZ2B (Homo sapiens, UniProt Q9UIF8).
T9 sequence (Q9UIF8 2060-2164 limits assumed): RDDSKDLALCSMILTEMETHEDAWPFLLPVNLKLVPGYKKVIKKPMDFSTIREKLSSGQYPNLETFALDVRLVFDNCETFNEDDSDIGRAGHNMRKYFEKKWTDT
The assay can be described thus: BROMOscan ligand-binding assay.

In another assay the target is T10, BRPF3 (Homo sapiens, UniProt Q9ULD4).
T10 sequence (Q9ULD4 589-693 limits assumed): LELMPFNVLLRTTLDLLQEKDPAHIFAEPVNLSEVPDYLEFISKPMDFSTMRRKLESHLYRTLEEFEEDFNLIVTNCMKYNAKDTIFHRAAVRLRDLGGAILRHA
Put plainly: BROMOscan ligand-binding assay.

Another assay has as its target BRDT(1) (Homo sapiens, UniProt Q58F21). Put plainly: BROMOscan ligand-binding assay. Particulars: BROMOscan Gene Symbol BRDT(1).
The next assay has as its target T11, BAZ2A (Homo sapiens, UniProt Q9UIF9).
T11 sequence (Q9UIF9 1793-1897 limits assumed): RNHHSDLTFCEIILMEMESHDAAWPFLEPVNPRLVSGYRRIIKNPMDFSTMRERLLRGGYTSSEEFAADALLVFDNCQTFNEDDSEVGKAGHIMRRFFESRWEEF
The assay can be described thus: BROMOscan ligand-binding assay. The note with it: BROMOscan Gene Symbol BAZ2A.

Assay [2] addresses T12, EP300 (Homo sapiens, UniProt Q09472).
T12 sequence (Q09472 1049-1156 limits assumed): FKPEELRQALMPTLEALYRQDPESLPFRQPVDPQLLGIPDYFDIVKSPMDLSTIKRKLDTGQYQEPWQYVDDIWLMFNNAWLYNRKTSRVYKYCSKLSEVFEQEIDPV
The assay can be described thus: BROMOscan ligand-binding assay. The note with it: BROMOscan Gene Symbol EP300.
Source text: (§1) BROMOscan is a binding assay based on the well-known KINOMEscan technology. This assay measures the binding of a DNA-tagged bromodomain to an immobilized BRD ligand. If an inhibitor is present, it will compete with the bromodomain binding to the immobilized ligand, resulting in reduction of a quantitative PCR (qPCR) signal in a dose-dependent manner.

The target of another assay is T13, ATAD2A (Homo sapiens, UniProt Q6PL18).
T13 sequence (Q6PL18 980-1092 limits assumed): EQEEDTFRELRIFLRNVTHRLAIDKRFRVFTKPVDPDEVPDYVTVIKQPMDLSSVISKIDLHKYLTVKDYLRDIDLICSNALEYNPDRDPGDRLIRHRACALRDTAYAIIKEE
Put plainly: BROMOscan ligand-binding assay.

Another assay concerns the target T14, TRIM33(PHD,BRD) (Homo sapiens, UniProt Q9UPN9).
T14 sequence (Q9UPN9 882-1087 limits assumed): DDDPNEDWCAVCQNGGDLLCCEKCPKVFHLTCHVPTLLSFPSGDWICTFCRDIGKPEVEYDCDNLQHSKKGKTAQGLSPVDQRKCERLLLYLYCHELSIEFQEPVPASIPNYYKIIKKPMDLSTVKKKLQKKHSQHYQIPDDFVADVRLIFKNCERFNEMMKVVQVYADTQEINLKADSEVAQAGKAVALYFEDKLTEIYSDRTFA
The assay can be described thus: BROMOscan ligand-binding assay.

The target of another assay is T15, TAF1L(2) (Homo sapiens, UniProt Q8IZX4).
T15 sequence (Q8IZX4 1517-1626 limits assumed): T5 sequence (P21675 1519-1628 limits assumed) with V46M, M51V, V102I, L107I
The assay can be described thus: BROMOscan ligand-binding assay. Particulars: BROMOscan Gene Symbol TAF1L(2).

The target in another assay is FALZ (Homo sapiens, UniProt Q12830). Put plainly: BROMOscan ligand-binding assay.
The target in a further assay is BRD2(1) (Homo sapiens, UniProt P25440). Put plainly: BROMOscan ligand-binding assay. Particulars: BROMOscan Gene Symbol BRD2(1).
Sequence of BRD2(1) (P25440 74-180 limits assumed): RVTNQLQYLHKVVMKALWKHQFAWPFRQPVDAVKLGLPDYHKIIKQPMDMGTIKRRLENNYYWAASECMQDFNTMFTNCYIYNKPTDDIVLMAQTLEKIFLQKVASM
Setting [3] is: read-out: KD (BROMOscan), sheet prints no unit (nM).

Changes are numbered by the printed parent chain. Read-outs that look alike come from different tables or passages of the source.

Sequence of MYST3 (Q92794 whole entry, species assumed): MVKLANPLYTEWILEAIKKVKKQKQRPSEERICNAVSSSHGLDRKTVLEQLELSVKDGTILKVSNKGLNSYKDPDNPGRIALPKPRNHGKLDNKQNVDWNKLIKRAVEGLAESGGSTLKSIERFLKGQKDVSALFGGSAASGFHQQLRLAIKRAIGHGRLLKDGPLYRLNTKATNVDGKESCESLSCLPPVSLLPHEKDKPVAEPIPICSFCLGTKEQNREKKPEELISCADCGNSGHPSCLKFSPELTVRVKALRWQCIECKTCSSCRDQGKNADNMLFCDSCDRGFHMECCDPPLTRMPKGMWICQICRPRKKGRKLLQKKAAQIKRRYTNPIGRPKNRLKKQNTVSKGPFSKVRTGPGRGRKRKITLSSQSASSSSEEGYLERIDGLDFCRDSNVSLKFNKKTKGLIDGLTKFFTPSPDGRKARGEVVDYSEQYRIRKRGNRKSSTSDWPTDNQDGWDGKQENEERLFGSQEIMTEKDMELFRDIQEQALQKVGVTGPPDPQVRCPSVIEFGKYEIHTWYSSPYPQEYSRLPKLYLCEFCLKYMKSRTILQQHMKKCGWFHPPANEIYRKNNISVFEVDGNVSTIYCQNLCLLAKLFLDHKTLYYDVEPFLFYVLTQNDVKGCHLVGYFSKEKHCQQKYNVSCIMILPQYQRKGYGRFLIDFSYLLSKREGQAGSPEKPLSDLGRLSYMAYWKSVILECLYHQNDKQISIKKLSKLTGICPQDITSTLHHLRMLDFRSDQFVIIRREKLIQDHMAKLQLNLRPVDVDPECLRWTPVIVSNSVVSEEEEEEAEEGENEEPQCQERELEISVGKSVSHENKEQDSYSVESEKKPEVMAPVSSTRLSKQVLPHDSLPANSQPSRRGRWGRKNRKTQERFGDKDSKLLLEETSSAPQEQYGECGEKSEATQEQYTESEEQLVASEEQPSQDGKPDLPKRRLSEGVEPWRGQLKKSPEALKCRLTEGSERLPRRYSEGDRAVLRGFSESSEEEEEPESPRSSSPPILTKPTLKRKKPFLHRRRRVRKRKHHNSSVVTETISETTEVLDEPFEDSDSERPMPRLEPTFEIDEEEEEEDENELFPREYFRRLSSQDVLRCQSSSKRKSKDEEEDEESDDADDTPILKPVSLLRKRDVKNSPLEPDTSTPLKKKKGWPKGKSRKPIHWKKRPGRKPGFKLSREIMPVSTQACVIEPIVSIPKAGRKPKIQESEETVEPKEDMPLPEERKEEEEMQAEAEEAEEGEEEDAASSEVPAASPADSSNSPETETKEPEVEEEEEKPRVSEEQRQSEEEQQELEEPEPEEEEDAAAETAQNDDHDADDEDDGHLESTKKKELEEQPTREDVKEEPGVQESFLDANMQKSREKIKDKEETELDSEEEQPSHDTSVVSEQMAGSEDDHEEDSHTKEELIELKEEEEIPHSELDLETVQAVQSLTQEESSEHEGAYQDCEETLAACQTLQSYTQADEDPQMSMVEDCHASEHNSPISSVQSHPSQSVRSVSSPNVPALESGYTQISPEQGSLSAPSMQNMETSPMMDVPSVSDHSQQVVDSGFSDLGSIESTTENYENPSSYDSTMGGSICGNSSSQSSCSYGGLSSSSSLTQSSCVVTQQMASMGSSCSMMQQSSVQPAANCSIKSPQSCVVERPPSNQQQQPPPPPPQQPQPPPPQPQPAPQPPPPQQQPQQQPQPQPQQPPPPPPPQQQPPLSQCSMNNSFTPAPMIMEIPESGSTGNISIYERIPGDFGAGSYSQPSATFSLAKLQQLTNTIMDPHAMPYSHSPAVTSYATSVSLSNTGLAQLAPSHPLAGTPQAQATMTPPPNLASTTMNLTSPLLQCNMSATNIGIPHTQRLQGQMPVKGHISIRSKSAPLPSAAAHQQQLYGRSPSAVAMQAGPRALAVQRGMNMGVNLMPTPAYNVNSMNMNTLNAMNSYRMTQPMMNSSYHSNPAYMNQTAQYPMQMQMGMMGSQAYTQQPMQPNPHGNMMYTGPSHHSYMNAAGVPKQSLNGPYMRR
Sequence of BRD2(2) (P25440 344-453 limits assumed): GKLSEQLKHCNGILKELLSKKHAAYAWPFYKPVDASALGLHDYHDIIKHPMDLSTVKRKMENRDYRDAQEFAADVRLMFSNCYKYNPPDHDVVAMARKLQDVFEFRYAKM
Sequence of BRD3(1) (Q15059 34-140 limits assumed): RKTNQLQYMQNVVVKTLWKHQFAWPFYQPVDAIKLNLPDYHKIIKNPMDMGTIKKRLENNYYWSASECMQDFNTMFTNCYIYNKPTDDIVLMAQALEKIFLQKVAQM
Source text for ATAD2A: as §1
Source text for ATAD2B: as §1
Source text for BAZ2A: as §1
Source text for BAZ2B: as §1
Source text for BRD1: as §1
Source text for BRD2(1): as §1
Source text for BRD2(2): as §1
Source text for BRD3(1): as §1
Source text for BRD3(2): as §1
Source text for BRD9: as §1
Source text for BRDT(1): as §1
Source text for BRDT(2): as §1
Source text for BRPF1: as §1
Source text for BRPF3: as §1
Source text for FALZ: as §1
Source text for PBRM1(2): as §1
Source text for TAF1(2): as §1
Source text for TAF1L(2): as §1
Source text for TRIM24(PHD,BRD): as §1
Source text for TRIM33(PHD,BRD): as §1
Source text for WDR9(2): as §1

Take `COc1cc(-c2cn(C)c(=O)c3cnccc23)c(OC)cc1CN(C)C` [BI-9564]: the activity at 1 µM at MYST1 worked out at 106%; at MYST3 it was 99%; on HAT1, 99%; at GCN5L2, 102%; on EP300 [1], 99%. Moreover, the activity at 10 µM was 101% at MYST1; 100% on MYST3; 96% at HAT1; 100% at GCN5L2; 94% on EP300 [1].
Consider `COc1ccc(CCc2nc3cc(-c4c(C)noc4C)ccc3n2CCN2CCOCC2)cc1` [CBP30-383], for which the Kd at BRDT(2) came out at 18 µM; on BRD3(2), 4.6 µM; on TRIM24(PHD,BRD) it was 26 µM; on BRD1 it was 47 µM; at PBRM1(2) it was 44 µM; at TAF1(2), 1.6 µM. Besides, the Kd is greater than 50000 nM on ATAD2B (BROMOscan Gene Symbol ATAD2B); greater than 30000 nM at ATAD2B (setting [3]); 11 µM at BRPF1; 10 µM on BRD9; 1.4 µM on BRD3(1); 41 µM at WDR9(2). The Kd is 3.6 µM at BRD2(2); greater than 50000 nM at BAZ2B (BROMOscan Gene Symbol BAZ2B); greater than 30000 nM at BAZ2B (setting [3]); greater than 50000 nM on BRPF3 (BROMOscan Gene Symbol BRPF3); greater than 30000 nM on BRPF3 (setting [3]); 3.6 µM at BRDT(1). Besides, the Kd on BAZ2A was 75 µM; at EP300 [2], 0.044 µM; on ATAD2A (BROMOscan Gene Symbol ATAD2A), greater than 150000 nM; at ATAD2A (setting [3]), greater than 30000 nM; at TRIM33(PHD,BRD) (BROMOscan Gene Symbol TRIM33(PHD,Bromo.)), greater than 50000 nM; on TRIM33(PHD,BRD) (setting [3]) it was greater than 30000 nM. Besides, the equilibrium dissociation constant (Kd) at TAF1L(2) was 14 µM; on FALZ (BROMOscan Gene Symbol FALZ), greater than 50000 nM; at FALZ (setting [3]) it was greater than 30000 nM; on BRD2(1) it was 1.5 µM.
For the compound `CC(=O)c1cc(-c2cc(C(=O)NC3CC3)ccc2C)c2ncccn12` [TP-472], the activity at 1 µM at MYST1 was 100%; at MYST3 it was 99%; at HAT1, 98%; at GCN5L2, 94%; at EP300 [1] it was 95%. Moreover, the activity at 10 µM at MYST1 came to 103%; at MYST3, 98%; at HAT1, 97%; at GCN5L2 it was 92%; at EP300 [1], 96%.
